Measured values taken from paper PMC3706879, “The neurotrophic compound J147 reverses cognitive impairment in aged Alzheimer's disease mice” (Alzheimer's Research & Therapy, 2013).

Tests used:
hERG = hERG (Homo sapiens, UniProt Q12809)
[1] = pharmacokinetic profile in mice, per oral administration (Pharmaron); type: in vivo, CD1 Mice
Description: (§1) The pharmacokinetics of J147 in the mouse brain and plasma were evaluated using standard procedures. Blood and brain distribution of J147 following per oral (PO) administration was plotted for mice as a function of time (Figure 5). […] Additional de-risking and target identification screens were carried out at 10 μM J147 by various CROs (Table 2). […] All original data are available upon request.
Figure 5 Pharmacokinetic profile of J147 in mice. (A) The pharmacokinetic profile of J147 in mice was done by Pharmaron (Louisville, KY, USA). Plasma (B) and brain (C) distribution of J147 was plotted as a function of time following or per oral (PO) administration at 20 mg/kg.

C57BL/6J mice = test: two-day water maze, scopolamine induced memory impairment; type: in vivo; settings: scopolamine 1 mg/kg i.p.; J147 200 ppm, donepezil 20 ppm in food for two weeks
Description: A total of 60 male mice aged eight weeks were housed 4 per cage and were divided into five groups with 12 mice per group. Treatments were administered in the food (TestDiet® 5015, Richmond, IN, USA) for a period of two weeks before commencement of behavioral testing. […] Following two weeks of treatment, memory impairment was induced by intraperitoneal (i.p.) injection of scopolamine (1 mg/kg) 30 minutes prior to each of the following behavioral tests: Y-maze, probe trial of the water maze and contextual and cued fear conditioning. Mice were allowed to rest for two days between each behavior test. All mice received scopolamine except for one of the control groups, which received saline as a control. Mice were sacrificed 24 hours after the last behavioral test for tissue harvesting.
Spatial memory was determined using the two-day water maze in 23-month-old huAPPswe/PS1 transgenic mice fed J147 at 200 ppm in food for the previous three months. The protocol was adapted from a publication by Gulinello and colleagues. Water temperature remained at 27°C throughout the experiment. […] The time it took each mouse to find the hidden platform was measured as escape latency. […] All trials were recorded using the EthoVision Software and statistics were computed using GraphPad Instat software (GraphPad Software, San Diego, CA, USA).

APP/swePS1ΔE9 mice = tested on: APP/swePS1ΔE9 mice; set-up: method as in PMID 22194796; settings: cited from earlier work
Rats = test: acute toxicity in rats (Absorption Systems); type: in vivo; settings: 2 g/kg
Description: as §1

Aβ plaques = test: immunohistochemistry (6E10) of amyloid plaques in hippocampus of aged huAPP/PS1 mice; type: in vivo
Description: Brains were fixed with 4% paraformaldehyde in 100 mM sodium tetraborate, pH 9.5, for 3 h, cryoprotected with 20% sucrose-potassium-PBS (KPBS), and sectioned into coronal (30 μm) sections using a sliding microtome (Leica Microsystems Inc, Buffalo Grove, IL, USA). Sections were submerged in 0.3% H2O2 for 10 minutes to eliminate endogenous peroxidase activity and treated with 1% borate to eliminate free paraformaldehyde. Sections were incubated with primary antibody in 0.3% Triton X-100 in KPBS plus 2% filtered serum or BSA overnight at 4°C, and with […] (1:1,000) in 0.3% Triton X-100 for 1 hr at room temperature. After incubation with secondary antibody and ABC reagent (Vector Laboratories Inc, Burlingame, CA, USA), sections were developed using metal-enhanced DAB solution. Sections were mounted to slides, dried, dehydrolyzed, treated with xylene, and covered using permount (Fisher Scientific, Pittsburgh, Pennsylvania, USA). […]
Quantification of amyloid plaque burden was based on the image captured by immunohistochemical staining with antibody 6E10. Sections of each mouse cortex and hippocampus were imaged together and the areas and densities of the plaques in the hippocampus only were measured by the Image J software (NIH). The total counts of Aβ plaques in sections per six mouse brains of each group were determined in an unbiased fashion.

mice = test: feeding throughout pregnancy to mice; type: in vivo; settings: 10 mg/kg/day throughout pregnancy

Chain of hERG (Q12809 whole entry): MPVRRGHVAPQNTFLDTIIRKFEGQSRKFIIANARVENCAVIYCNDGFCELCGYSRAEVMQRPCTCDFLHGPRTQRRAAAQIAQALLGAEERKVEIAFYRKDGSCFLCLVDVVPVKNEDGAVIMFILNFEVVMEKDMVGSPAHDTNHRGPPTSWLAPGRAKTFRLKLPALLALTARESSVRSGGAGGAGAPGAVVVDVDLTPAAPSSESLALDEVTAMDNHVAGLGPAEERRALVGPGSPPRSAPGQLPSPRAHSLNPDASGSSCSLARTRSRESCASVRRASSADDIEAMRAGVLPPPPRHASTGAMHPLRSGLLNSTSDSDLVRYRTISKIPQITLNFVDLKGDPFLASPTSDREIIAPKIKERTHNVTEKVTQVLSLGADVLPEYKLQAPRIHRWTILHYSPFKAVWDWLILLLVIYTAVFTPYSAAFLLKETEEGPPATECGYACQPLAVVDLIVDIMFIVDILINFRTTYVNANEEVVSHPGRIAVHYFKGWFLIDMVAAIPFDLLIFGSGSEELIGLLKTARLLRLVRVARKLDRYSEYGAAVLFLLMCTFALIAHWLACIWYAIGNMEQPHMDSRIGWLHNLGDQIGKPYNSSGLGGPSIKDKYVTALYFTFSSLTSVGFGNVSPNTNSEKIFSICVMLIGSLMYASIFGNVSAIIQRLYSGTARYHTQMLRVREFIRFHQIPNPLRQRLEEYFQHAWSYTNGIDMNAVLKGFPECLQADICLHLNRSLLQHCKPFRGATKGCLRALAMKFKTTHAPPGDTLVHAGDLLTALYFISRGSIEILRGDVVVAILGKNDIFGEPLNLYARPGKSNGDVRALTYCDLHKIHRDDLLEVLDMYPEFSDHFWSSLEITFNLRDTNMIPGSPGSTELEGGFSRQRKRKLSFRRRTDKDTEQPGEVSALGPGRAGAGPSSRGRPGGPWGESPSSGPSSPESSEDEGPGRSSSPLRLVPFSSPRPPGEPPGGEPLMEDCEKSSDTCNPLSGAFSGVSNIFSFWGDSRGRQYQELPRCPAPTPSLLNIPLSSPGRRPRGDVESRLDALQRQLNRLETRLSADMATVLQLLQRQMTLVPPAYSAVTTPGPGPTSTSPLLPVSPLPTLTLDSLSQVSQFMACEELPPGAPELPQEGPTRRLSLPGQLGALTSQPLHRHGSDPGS

COc1cccc(/C=N/N(C(=O)C(F)(F)F)c2ccc(C)cc2C)c1 [J147, (E)-N-(2,4-dimethylphenyl)-2,2,2-trifluoro-N'-(3methoxybenzyli-dene) acetohydrazide]
hERG assay (hERG): negative
brain levels ([1]; at 2 h after a single dose of 20 mg/kg in mice): about 600 nM
half life ([1]; brain, mice, PO): 2.5 h
bioavailability following oral administration ([1]; mice, PO): 28%
half life ([1]; plasma, mice, PO): 1.5 h
brain to blood ratio ([1]; single dose of 20 mg/kg in mice): approximately 0.5
spatial memory (time to find hidden platform) (C57BL/6J mice): rescued this deficit in spatial memory
loss of synaptic proteins and cognitive decline (APP/swePS1ΔE9 mice; administered to three-month-old APP/swePS1ΔE9 mice for seven months): prevents the loss of synaptic proteins and cognitive decline
levels of BDNF in the hippocampus (APP/swePS1ΔE9 mice; huAPP/PS1 transgenic mice): increases the levels of BDNF
acute toxicity (Rats): negative results
plaque number and size (Aβ plaques): no difference in either plaque number or size
offspring after feeding throughout pregnancy (mice): normal
